Legend:
[1] = Solubility of compound A in Britton-Robinson buffer at each pH; assay type: physicochemical; details: 20° C., 30 minutes
Method: Regarding a compound A, the solubility was measured by measuring the solubility in the Britton-Robinson buffer at 20° C. at each pH of pHs 1, 3, 5, 7, 9, 11 and 13. The compound A was added to a solution at each pH, the mixture was vigorously stirred for 30 seconds every 5 minutes, and an amount of a physiologically active substance dissolved at a time point of 30 minutes was measured (according to a method of confirming the solubility described in Japanese Pharmacopoeia, general rules).

SMILES | melting point [°C] | solubility on an acidic side or an alkaline side ([1]; acidic or alkaline pH) | solubility at neutral pH ([1]; neutral pH)
CCOC(=O)CNC(=O)c1cn2nc(NCCCN3CCC(OC(c4ccccc4)c4ccccc4)CC3)ccc2n1 (hydrate or solvate) [Reference Example 7, N-[6-[3-[4-(diphenylmethoxy)piperidino]propylamino]imidazo[1,2-b]pyridazine-2-carbonyl]glycine ethyl ester] | 172 to 174 | – | –
CC(C)(C(=O)O)c1cn2nc(NCCCN3CCC(OC(c4ccccc4)c4ccccc4)CC3)ccc2n1.O.O (hydrate or solvate) [compound A, 2-[6-[3-[4-(diphenylmethoxy)piperidino]propylamino]imidazo[1,2-b]pyridazin-2-yl]-2-methylpropionic acid dihydrate] | 203 to 205 | – | –
CC(C)(C(=O)O)c1cn2nc(NCCCN3CCC(OC(c4ccccc4)c4ccccc4)CC3)ccc2n1 [Reference Example 4, 2-[6-[3-[4-(diphenylmethoxy)piperidino]propylamino]imidazo[1,2-b]pyridazin-2-yl]-2-methylpropionic acid] | 205 to 206 | – | –
CC(C)(C(=O)O)c1cn2nc(NCCCN3CCC(OC(c4ccccc4)c4ccccc4)CC3)ccc2n1.O.O [compound A, 2-[6-[3-[4-(diphenylmethoxy)piperidino]propylamino]imidazo[1,2-b]pyridazin-2-yl]-2-methylpropionic acid dihydrate] | – | enhanced solubility | hardly dissolved

— patent US20040137052A1, “Acid-containing preparations” (priority 2001, published 2004)
